Several values for one entry are separate records, joined by “and”; a condition that tells them apart may be missing. Identical values can stand only once. Like-named read-outs stand apart in the source and are kept apart here. Blank lines part the entries; values can stand above or below the compound they belong to.
Experiments:
[1] = Percent encapsulation (percent yield) of drug in final MVL suspension; format: physicochemical
[2] = Drug loading of multivesicular liposomes (MVL): drug concentration of suspension relative to lipocrit; format: physicochemical
[3] = cited from earlier work
[4] = Integrity of encapsulated IGF-I by SDS-PAGE and RP-HPLC / characterization of encapsulated protein; format: physicochemical
Text: (§1) The physicochemical integrity of the encapsulated IGF-I was confirmed by SDS-PAGE assay using Novex NuPage gel as well as by RP-HPLC assay using a C18 symmetric column. The encapsulated protein was extracted using 75:25 IPA:2N Citric Acid. The bioactivity of the encapsulated IGF-I was confirmed by a mitogenic bioassay using MG-63 human osteosarcoma cell line and 3-(4,5-dimethylthiazol-2-yl)-2,5-diphenyltetrazolium bromide (MTT) stain according to the method of W. Lopaczynski et al., Regulatory Peptides, 48:207-216, 1993. The MG-63 cells were obtained from the American Type Culture Collection (ATCC# CRL 1427), and the dose dependent mitogenic response of quiescent MG-63 cells to added IGF-I was determined.

[5] = tested on: MG-63 human osteosarcoma cell line; test: Mitogenic bioassay of extracted IGF-I with MTT stain; format: cell-based; conditions: mitogenic response of quiescent MG-63 cells, versus unencapsulated standard
Text: as §1

[6] = Lipocrit of MVL suspension; format: physicochemical; conditions: 125 mL scale, first aqueous: 15 mg/mL, 20 mM ammonium citrate
Method: As used herein, "lipocrit," which is defined in analogy to hematocrit, means the ratio of the volume occupied by the liposomes to the total suspension volume multiplied by 100. [formula]
Thus, percent yield of drug was calculated as the ratio of the drug concentration in the final suspension times the volume of the final suspension to the drug concentration in the first aqueous solution times the volume of the first aqueous solution. Lipocrit was calculated, in analogy to hematocrit, as the percent ratio of the pellet volume to the suspension volume (see conditions below for obtaining the pellet volume).
To calculate the lipocrit about 50 μL of the multivesicular liposome suspension was taken up into a capillary tube, and end of the tube was sealed while ensuring that the suspension contained no air bubbles. The suspension was spun in a centrifuge at 600×g for 10 minutes to obtain a pellet layer and a supernatant layer. The percent ratio of the length of the tube occupied by the pellet to that occupied by the suspension gives the lipocrit.

[7] = Solubility of IGF-I versus pH; format: physicochemical
Method: Further studies were conducted using in the first aqueous component concentrations of IGF-I ranging from 10 to 80 mg/mL, either with or without 100 mM HCl or 25 mM citric acid at constant pH. […] Studies have shown that up to about 300 mg/mL of IGF-I is soluble at a pH below 5.

[8] = Percent free drug in MVL suspension; conditions: 125 mL scale, first aqueous: 15 mg/mL, 8.0 w/v % sucrose, 20 mM ammonium citrate, ~321 mOsm
Method: As used herein, "percent free drug" means the ratio of the amount of drug exterior to the liposomes in the final liposome suspension to the total amount of drug in the final suspension (the final product) multiplied by 100. [formula]
125 mL of first aqueous solution was mixed with 125 mL of the lipid component using a high-shear double-mixing vessel system to obtain the first emulsion. […] The aqueous and organic components were mixed at a speed of 8000 rpm for 30 minutes in the first emulsion vessel. […]
Percent free drug was calculated as the percent ratio of the amount of drug in the supernatant to the amount of drug in the final suspension. Percent free drug can also be calculated as the percent ratio of the drug concentration in the supernatant to that in the suspension, times (1-lipocrit) Drug loading, which measures the amount of drug encapsulated in each unit of the encapsulated volume, is approximately equal to and can be estimated (assuming low percent free drug) as the ratio of the drug concentration of the final liposome suspension to the lipocrit. […]
Using a reference absorbance standard established based on drug solutions of known concentration in the same dissolving solution, the concentrations of drug in the suspension and supernatant were calculated.

[9] = prior-art multivesicular liposomes; cited from earlier work
[10] = prior-art multivesicular liposomes; cited from earlier work; remark: listed apart in the source

Compound: CC(C)C[C@H](NC(=O)[C@H](Cc1ccccc1)NC(=O)CNC(=O)CNC(=O)[C@@H](N)Cc1ccc(O)cc1)C(=O)O [Enkephalin, reference compound]
% Yield [1]: 77.5% and 71.8% and 72.5%
effect of osmolarity of first aqueous solution on percent yield [1]: not significantly changed by a decrease in osmolarity
effect of osmolarity of first aqueous solution on drug loading [2]: decreasing of osmolarity resulting in increased drug loading
Drug Loading ([2]; first aqueous: 5 mg/mL, 0.0 w/v % sucrose, 25 mM citric acid, est. 35.5 mOsm): 50.8 mg/mL
Drug Loading ([2]; first aqueous: 5 mg/mL, 2.5 w/v % sucrose, 25 mM citric acid, est. 111.5 mOsm): 13.4 mg/mL
Drug Loading ([2]; first aqueous: 5 mg/mL, 5.0 w/v % sucrose, 25 mM citric acid, est. 191.5 mOsm): 6.4 mg/mL

% Yield ([1]; MVL, first aqueous: 15 mg/mL, 4.0 w/v % sucrose, 100 mM phosphoric acid, est. 261.6 mOsm): 54.1%
% Yield ([1]; MVL, first aqueous: 15 mg/mL, 6.0 w/v % sucrose, 100 mM phosphoric acid, est. 328.6 mOsm): 56.2%
Drug Loading ([2]; first aqueous: 15 mg/mL, 4.0 w/v % sucrose, 100 mM phosphoric acid, est. 261.6 mOsm): 17.9 mg/mL
Drug Loading ([2]; first aqueous: 15 mg/mL, 6.0 w/v % sucrose, 100 mM phosphoric acid, est. 328.6 mOsm): 10.9 mg/mL
Compound: CCNC(=O)[C@@H]1CCCN1C(=O)[C@H](CCCNC(=N)N)NC(=O)[C@H](CC(C)C)NC(=O)[C@@H](CC(C)C)NC(=O)[C@H](Cc1ccc(O)cc1)NC(=O)[C@H](CO)NC(=O)[C@H](Cc1c[nH]c2ccccc12)NC(=O)[C@H](Cc1c[nH]cn1)NC(=O)[C@@H]1CCC(=O)N1 [Leuprolide, reference compound]
effect of osmolarity of first aqueous solution on percent yield ([1]; MVL): A similar percent yield was maintained across the range of osmolarities tested
effect of osmolarity of first aqueous solution on drug loading [2]: decreasing of osmolarity resulting in increased drug loading

Compound: OC[C@H]1O[C@@](CO)(O[C@H]2O[C@H](CO)[C@@H](O)[C@H](O)[C@H]2O)[C@@H](O)[C@@H]1O [sucrose]
Osmolarity for sucrose ([3]; 0.5 w/v %): 15 mOsm
Osmolarity for sucrose ([3]; 1.0 w/v %): 30 mOsm
Osmolarity for sucrose ([3]; 1.5 w/v %): 45 mOsm
Osmolarity for sucrose ([3]; 2.0 w/v %): 60 mOsm
Osmolarity for sucrose ([3]; 2.5 w/v %): 76 mOsm
Osmolarity for sucrose ([3]; 3.0 w/v %): 91 mOsm
Osmolarity for sucrose ([3]; 4.0 w/v %): 123 mOsm
Osmolarity for sucrose ([3]; 5.0 w/v %): 156 mOsm
Osmolarity for sucrose ([3]; 6.0 w/v %): 190 mOsm
Osmolarity for sucrose ([3]; 7.0 w/v %): 225 mOsm
Osmolarity for sucrose ([3]; 8.0 w/v %): 261 mOsm

Compound: IGF-I: insulin-like growth factor I (IGF-I), encapsulated in MVLs
physicochemical integrity of encapsulated IGF-I ([4]; SDS-PAGE and RP-HPLC, extracted with 75:25 IPA:2N citric acid): confirmed
degradation of encapsulated protein ([4]; Table 6A formulations (100 mM HCl)): showed some degradation
presence of IGF-I oligomers ([4]; absence of an acid buffer, Table 6B): increased presence of IGF-I oligomers in the absence of an acid buffer
bioactivity of extracted IGF-I [5]: approximately equivalent to that of an unencapsulated standard
% Lipocrit ([6]; 5.0 w/v % sucrose, ~216 mOsm): 36.7%
% Lipocrit ([6]; 8.0 w/v % sucrose, ~321 mOsm): 41.8%
solubility and bioavailability of encapsulated IGF-I versus pH ([7]; 10 to 80 mg/mL IGF-I, with or without 100 mM HCl or 25 mM citric acid): varied according to pH of the first aqueous component
solubility ([7]; pH below 5): about 300 mg/mL
% Free IGF-I [8]: 0.18%

Compound: cytosine arabinoside [Cytarabine]
release rate of encapsulated molecules in biological fluids [9]: faster than is therapeutically desirable
% Yield [1]: 57.1% and 62.6% and 77.3% and 69.6%
effect of osmolarity of first aqueous solution on percent yield [1]: remaining relatively constant
Drug Loading ([2]; first aqueous: 40 mg/mL, 0.0 w/v % sucrose, 20 mM citric acid, est. 185.9 mOsm): 61.7 mg/mL
Drug Loading ([2]; first aqueous: 40 mg/mL, 2.0 w/v % sucrose, 20 mM citric acid, est. 245.9 mOsm): 45.2 mg/mL
Drug Loading ([2]; first aqueous: 40 mg/mL, 5.0 w/v % sucrose, 20 mM citric acid, est. 341.9 mOsm): 30.8 mg/mL
Drug Loading ([2]; first aqueous: 40 mg/mL, 8.0 w/v % sucrose, 20 mM citric acid, est. 446.9 mOsm): 21.0 mg/mL
encapsulation efficiency [10]: relatively low

— US6106858A, “Modulation of drug loading in multivescular liposomes” (SkyePharma, Inc., priority 1997, dated 2000)
